Source: PubChem BioAssay (NCI)
“And” between values parts separate entries of the source, which are not always exact repeats. Equal entries are not always repeated.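 Compound exposure: 48 hours, 5 concentrations, 96-well plates. GI50 marks 50% less growth. TGI: concentration producing complete growth inhibition.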

These compounds were tested on CCRF-CEM leukemia (assay: DTP human tumour cell line panel, 48 h).
Work on CCCCCCCCCCC(O)C1CCC(C2CCC(C(O)CCCCC(O)CCCCCC(O)CC3=CC(C)OC3=O)O2)O1 (stereo not drawn) yielded a GI50 of 1.58 µM and a TGI of over 25 µM.

The compounds below were run on ACHN renal (assay: DTP human tumour cell line panel, 48 h).
Compound N#CC1=C(N2CCCC2)NC(=O)CC1=O has a TGI of over 100 µM. Work on CC(C)(C)C1=CC(=CC=C2C=CN(CCCCCCCCCCCO)C=C2)C=C(C(C)(C)C)C1=O yielded a TGI of over 25.2 µM. With O=C(c1ccc(Cl)cc1Cl)N(C(=O)N1CCCCC1)c1ccccc1 the TGI was over 100 µM. Compound CSc1ccc(C2C(Cl)C(=O)N2NC(=O)c2c(Cl)c(Cl)c(Cl)c(Cl)c2-c2nc3ccccc3[nH]2)cc1 (stereo not drawn) has a TGI of 71.4 µM. For CC(C)CC(N)C(=O)O (stereo not drawn), the TGI was over 100 µM. With O=C1NC(Nc2cccc(Cl)c2)=N/C1=C\c1ccc(Cl)c(Cl)c1 the TGI was 17 µM. CCCCCCCCCCC(O)C1CCC(C2CCC(C(O)CCCCC(O)CCCCCC(O)CC3=CC(C)OC3=O)O2)O1 (stereo not drawn) was tested, and the GI50 was 1.59 µM and the TGI was 7.79 µM and > 25 µM.

These compounds were tested on OVCAR-5 ovarian (assay: DTP human tumour cell line panel, 48 h).
Compound N#CC1=C(N2CCCC2)NC(=O)CC1=O has a TGI of over 100 µM. CC(C)(C)C1=CC(=CC=C2C=CN(CCCCCCCCCCCO)C=C2)C=C(C(C)(C)C)C1=O was tested, and the TGI was 6.52 µM. With O=C(c1ccc(Cl)cc1Cl)N(C(=O)N1CCCCC1)c1ccccc1 the TGI was over 100 µM. CSc1ccc(C2C(Cl)C(=O)N2NC(=O)c2c(Cl)c(Cl)c(Cl)c(Cl)c2-c2nc3ccccc3[nH]2)cc1 (stereo not drawn) showed a TGI of 53.4 µM. For O=C1NC(Nc2cccc(Cl)c2)=N/C1=C\c1ccc(Cl)c(Cl)c1, the TGI was 21.8 µM. Compound CCCCCCCCCCC(O)C1CCC(C2CCC(C(O)CCCCC(O)CCCCCC(O)CC3=CC(C)OC3=O)O2)O1 (stereo not drawn) has a TGI of over 25 µM.

The compounds below were run on MOLT-4 leukemia (assay: DTP human tumour cell line panel, 48 h).
N#CC1=C(N2CCCC2)NC(=O)CC1=O showed a TGI of over 100 µM. In the case of CC(C)(C)C1=CC(=CC=C2C=CN(CCCCCCCCCCCO)C=C2)C=C(C(C)(C)C)C1=O, the TGI was 4.74 µM. With O=C(c1ccc(Cl)cc1Cl)N(C(=O)N1CCCCC1)c1ccccc1 the TGI was over 100 µM. Work on CSc1ccc(C2C(Cl)C(=O)N2NC(=O)c2c(Cl)c(Cl)c(Cl)c(Cl)c2-c2nc3ccccc3[nH]2)cc1 (stereo not drawn) yielded a TGI of 68.7 µM. Work on CC(C)CC(N)C(=O)O (stereo not drawn) yielded a TGI of over 100 µM. Work on O=C1NC(Nc2cccc(Cl)c2)=N/C1=C\c1ccc(Cl)c(Cl)c1 yielded a TGI of 20.8 µM. In the case of CCCCCCCCCCC(O)C1CCC(C2CCC(C(O)CCCCC(O)CCCCCC(O)CC3=CC(C)OC3=O)O2)O1 (stereo not drawn), the GI50 was 2.57 µM and the TGI was over 25 µM.

These compounds were tested on HS 578T breast (assay: DTP human tumour cell line panel, 48 h).
In the case of N#CC1=C(N2CCCC2)NC(=O)CC1=O, the TGI was over 100 µM. For CC(C)(C)C1=CC(=CC=C2C=CN(CCCCCCCCCCCO)C=C2)C=C(C(C)(C)C)C1=O, the TGI was 4.23 µM. Work on O=C(c1ccc(Cl)cc1Cl)N(C(=O)N1CCCCC1)c1ccccc1 yielded a TGI of over 100 µM. Compound CSc1ccc(C2C(Cl)C(=O)N2NC(=O)c2c(Cl)c(Cl)c(Cl)c(Cl)c2-c2nc3ccccc3[nH]2)cc1 (stereo not drawn) has a TGI of over 100 µM. CC(C)CC(N)C(=O)O (stereo not drawn) gave a TGI of over 100 µM. Compound O=C1NC(Nc2cccc(Cl)c2)=N/C1=C\c1ccc(Cl)c(Cl)c1 has a TGI of 13.4 µM.

What follows are compounds tested on UACC-62 melanoma (assay: DTP human tumour cell line panel, 48 h).
N#CC1=C(N2CCCC2)NC(=O)CC1=O was tested, and the TGI was over 100 µM. Work on CC(C)(C)C1=CC(=CC=C2C=CN(CCCCCCCCCCCO)C=C2)C=C(C(C)(C)C)C1=O yielded a TGI of 2.96 µM. O=C(c1ccc(Cl)cc1Cl)N(C(=O)N1CCCCC1)c1ccccc1 showed a TGI of over 100 µM. CSc1ccc(C2C(Cl)C(=O)N2NC(=O)c2c(Cl)c(Cl)c(Cl)c(Cl)c2-c2nc3ccccc3[nH]2)cc1 (stereo not drawn) gave a TGI of over 100 µM. With CC(C)CC(N)C(=O)O (stereo not drawn) the TGI was over 100 µM. O=C1NC(Nc2cccc(Cl)c2)=N/C1=C\c1ccc(Cl)c(Cl)c1 showed a TGI of 21.6 µM. CCCCCCCCCCC(O)C1CCC(C2CCC(C(O)CCCCC(O)CCCCCC(O)CC3=CC(C)OC3=O)O2)O1 (stereo not drawn) was tested, and the GI50 was over 25 µM and the TGI was 9.08 µM and > 25 µM.

What follows are compounds tested on MALME-3M melanoma (assay: DTP human tumour cell line panel, 48 h).
For N#CC1=C(N2CCCC2)NC(=O)CC1=O, the TGI was over 100 µM. Compound CC(C)(C)C1=CC(=CC=C2C=CN(CCCCCCCCCCCO)C=C2)C=C(C(C)(C)C)C1=O has a TGI of 3.51 µM. Compound O=C(c1ccc(Cl)cc1Cl)N(C(=O)N1CCCCC1)c1ccccc1 has a TGI of over 100 µM. CSc1ccc(C2C(Cl)C(=O)N2NC(=O)c2c(Cl)c(Cl)c(Cl)c(Cl)c2-c2nc3ccccc3[nH]2)cc1 (stereo not drawn) showed a TGI of 39.5 µM. CC(C)CC(N)C(=O)O (stereo not drawn) showed a TGI of over 100 µM. Work on O=C1NC(Nc2cccc(Cl)c2)=N/C1=C\c1ccc(Cl)c(Cl)c1 yielded a TGI of 27.8 µM. CCCCCCCCCCC(O)C1CCC(C2CCC(C(O)CCCCC(O)CCCCCC(O)CC3=CC(C)OC3=O)O2)O1 (stereo not drawn) was tested, and the TGI was over 25 µM.

These compounds were tested on SNB-19 CNS (assay: DTP human tumour cell line panel, 48 h).
With N#CC1=C(N2CCCC2)NC(=O)CC1=O the TGI was over 100 µM. With CC(C)(C)C1=CC(=CC=C2C=CN(CCCCCCCCCCCO)C=C2)C=C(C(C)(C)C)C1=O the TGI was 3.15 µM. With O=C(c1ccc(Cl)cc1Cl)N(C(=O)N1CCCCC1)c1ccccc1 the TGI was over 100 µM. In the case of CSc1ccc(C2C(Cl)C(=O)N2NC(=O)c2c(Cl)c(Cl)c(Cl)c(Cl)c2-c2nc3ccccc3[nH]2)cc1 (stereo not drawn), the TGI was 73.4 µM. Compound CC(C)CC(N)C(=O)O (stereo not drawn) has a TGI of over 100 µM. O=C1NC(Nc2cccc(Cl)c2)=N/C1=C\c1ccc(Cl)c(Cl)c1 was tested, and the TGI was 21 µM. In the case of CCCCCCCCCCC(O)C1CCC(C2CCC(C(O)CCCCC(O)CCCCCC(O)CC3=CC(C)OC3=O)O2)O1 (stereo not drawn), the GI50 was 1.41 µM and the TGI was over 25 µM.
